Results on 2 compounds are retold here after patent publication US11001584B2, “Polymorphs” (SYNGENTA PARTICIPATIONS AG, priority 2016, dated 2021).

A short description of the data set: Stability of polymorphs: equal amounts of both polymorphs stirred in IPA, form determined by DSC and high throughput pXRD. In kind it is physicochemical. To be noted: 24 hours. How it is done:
Equal amounts of the polymorph of the invention and the Reference Form A polymorph were stirred in IPA at a range of temperatures. After 24 hours, the crystals were isolated and dried and their polymorphic form determined by DSC and high throughput pXRD.

As for `CCOC(=O)OC1=C(c2c(C)cc(Cl)cc2C)C(=O)N(C)C12CCN(OC)CC2` [Reference Form A], the “DSC curves of the isolated crystals (polymorphic form present)” value (equal amounts of polymorph of the invention and Reference Form A stirred in IPA at a range of temperatures) is “marked reduction in the presence of Reference Form A”. Besides, the “Powder XRD patterns of the isolated crystals (polymorphic form present)” value (equal amounts of polymorph of the invention and Reference Form A stirred in IPA, room temperature, 40° C. and 50° C.) is reported as “reflections characteristic of Reference Form A were absent”.
Regarding `CCOC(=O)OC1=C(c2c(C)cc(Cl)cc2C)C(=O)N(C)C12CCN(OC)CC2` [polymorph of the invention], under “stirred with Reference Form A in IPA, room temperature up to 50° C.”, the Relative polymorphic stability entry is reported as “the stable form over the temperature range studied”.
